Assays:
Experiment in all cases: Suspension test of biocide with or without perlite, 1 minute contact
[1] = system: Pseudomonas aeruginosa ATCC 15442
[2] = system: Aspergillus brasiliensis ATCC 16404
[3] = system: Staphylococcus aureus ATCC 6538

**Q.** `CC1(C)C(=O)N(Cl)C(=O)N1Br` [BDCMH] was tested. Which “R reduction in viability” value [1] did it give?
**A.** The value was 1.00 Log 10.

**Q.** And the Vc viable count ([1]; dilution −1, duplicate plates)?
**A.** The Vc viable count was >330; >330 cfu.

**Q.** What about the Vc viable count ([1]; dilution −2, duplicate plates) of the same compound?
**A.** The Vc viable count was >330; >330 cfu.

**Q.** And the Vc viable count ([1]; dilution −3, duplicate plates)?
**A.** The Vc viable count was >330; >330 cfu.

**Q.** What about the “R reduction in viability” value [2] of the same compound?
**A.** The value was −0.01 Log 10.

**Q.** What about the Vc viable count ([2]; dilution N, duplicate plates) of the same compound?
**A.** Its Vc viable count is >165; >165 cfu.

**Q.** And the Vc viable count ([2]; dilution −1, duplicate plates)?
**A.** The Vc viable count was >165; >165 cfu.

**Q.** And the Vc viable count ([2]; dilution −2, duplicate plates)?
**A.** Its Vc viable count is >165; >165 cfu.

**Q.** What about the Vc viable count ([2]; dilution −3, duplicate plates) of the same compound?
**A.** The Vc viable count was >165; >165 cfu.

**Q.** And the “R reduction in viability” value [3]?
**A.** The value was 1.92 Log 10.

**Q.** And the Vc viable count ([3]; dilution −1, duplicate plates)?
**A.** Its Vc viable count is >330; >330 cfu.

**Q.** And the Vc viable count ([3]; dilution −2, duplicate plates)?
**A.** The Vc viable count was >330; >330 cfu.

**Q.** With `O=c1nc([O-])n(Cl)c(=O)n1Cl.[Na+]` [Sodium Dichloroisocyanurate, sodium dichloroisocyanurate] as the compound, how does the “R reduction in viability” value [1] read?
**A.** The value was 3.71 Log 10.

**Q.** And the “R reduction in viability” value [2]?
**A.** Its value is 2.84 Log 10.

**Q.** What about the Vc viable count ([2]; dilution N, duplicate plates) of the same compound?
**A.** Its Vc viable count is >165; >165 cfu.

**Q.** What about the “R reduction in viability” value [3] of the same compound?
**A.** Its value is >6.23 Log 10.

Reference: patent publication US12213480B2, “Biocidal formulation” (For Spills Ltd., priority 2018, dated 2025)
